Residues, ends and D or L forms follow the SMILES beside them.
Assays:
[1] = tested on: hCMEC/D3 cells; test: MTT metabolic activity assay in hCMEC/D3 cells; type: cell-based, human; conditions: 24 h versus 4 h exposure
Method: HCMEC/D3 (passage number 32–40) cultured in EBM-2 (Lonza) supplemented with the EGM-2 Bullet Kit™ (Lonza), and 2% v/v human serum (Sigma H3667, Batch: SLBW2276) were used to assess the cytotoxicity of lipidized peptides. The cells were subjected to routine mycoplasma testing and authenticated in house. The cells were seeded at 46,875 cells/cm^2 in complete medium, and allowed to attach overnight, refreshing the medium to treat the cells with peptide solutions. The peptide solutions were prepared from […] DMSO stocks at a final concentration between 1 and 400 μM in complete medium to ensure a final DMSO concentration of 0.5%, and 200 μL of the diluted stock was added to each well. The metabolic activity of the cells was measured after 4 and 24 h using the MTT (3-(4,5)-dimethylthiazol-2-yl)-2,5-diphenyltetrazolium bromide) assay. At the time points specified, the MTT solution was added to each well (20 μL at 5 mg.mL^−1 in PBS), and the cells were incubated for 4 h at 37°C. Subsequently, DMSO (100 μL) was added to dissolve the formazan crystals, and the absorbance was measured at 570 and 690 nm on a Multiskan Go microplate spectrophotometer, analyzing the data using the SkanIt software (Thermo Scientific, Paisley, UK). […]
IC50 values were calculated using Graphpad Prism 8.0 (San Diego, USA) and fitted using a non-linear regression model ([Inhibitor] vs. response (three parameters)).

[2] = In vitro stability in 50% brain homogenate; type: in vitro ADME, mouse; conditions: 37°C, HPLC-UV 220 nm, one phase decay, least square fit, n = 3
Method: (§1) The samples were analyzed at 40°C on a Phenomenex Lichrosorb RP8 C8 column (4.0 mm × 250 mm, 5 μm), using the gradient elution method on an Agilent HPLC system (Agilent Technologies, Cheadle, UK) equipped with an 1100 series degasser, quaternary pump, autosampler, and column heater, and attached to an Agilent 1200 series PDA detector and a 1250 series fluorescent detector. The flow rate was set at 1.2 mL min^-1, and the injection volume was set at 40 μL, while detection was performed at 220 nm. The mobile phase was a mixture of mobile phase A (0.1% TFA in water) and phase B (0.08% TFA in acetonitrile), and in the first 5 min, the mobile phase was an 8:2 ratio of A:B (v/v) and from 5 to 15 min the percentage of B was raised from 8:2 to 1:9 (v/v). Linear calibration curves were constructed for both peptides between 0.1–100 μg.mL^−1. The retention time for the human Lau–PTEN-PDZ, mouse Lau–PTEN-PDZ, human Myr–PTEN-PDZ, and mouse Myr–PTEN-PDZ was 12.03, 11.60, 13.68, and 13.91, respectively.
(§2) The liver and brain of the mice were excised from […] CD-1 male mice (7 weeks-old: Charles River Laboratories) sacrificed with CO2, and the tissue was frozen immediately with liquid nitrogen prior to storage at −80°C. The liver and brain tissue were thawed and homogenized on ice in PBS (2 mL/g of tissue) using a glass 3 mL tissue homogenizer (20 strokes per sample), and the liver and brain homogenates were centrifuged (Heraeus Multifuge 3sf, Fisher Scientific, Basingstoke, UK) at 4300 g for 60 min at 4°C and at 3000 g for 20 min at 4°C, respectively. The supernatant was stored at −80°C, diluted 1:1 (v/v) with PBS (1x, pH 7.4), and used in stability studies. Peptides stocks (5 mM in DMSO) were prepared and maintained at −20°C prior to performing stability studies. These stock solutions (120 μL) were added to the diluted pre-warmed (37°C) liver or brain homogenate (50% v/v, 1080 μL) with agitation (100 rpm: Grant Aqua Waterbath), and samples (80 μL) were taken at 0, 5, 10, 15, 30, 45, 60, 90, 120, 180, 240, 360 and 1440 min, and diluted with ice-cold acetonitrile (80 μL). Samples were vortexed and left at −80°C at least overnight to allow for maximum protein precipitation, the samples were vortexed again for 15 min, centrifuged and the supernatant was analyzed by HPLC as described above.
(§3) The total protein concentration in the homogenates was determined using the Bradford protein assay ([7],[15]) and BSA as a standard. Ten stock solutions of BSA were prepared in PBS between 0.1–1 mg mL^−1, and 40 μL of each of the diluted stocks were added to 1.2 mL of Bradford reagent and incubated at room temperature for 5 min. The absorbance was recorded at 595 nm using a Multiskan GO spectrophotometer and the SkanIt software (Thermo Scientific, Paisley, UK). A linear calibration curve was obtained in this range that was used to extrapolate the protein content of 1:100 v/v stock solutions of 50% mouse plasma, liver, and brain homogenates diluted in PBS.

[3] = In vitro stability in 50% liver homogenate; type: in vitro ADME, mouse; conditions: 37°C, HPLC-UV 220 nm, one phase decay, least square fit, n = 3
Method: as §1, §2, §3

[4] = 50% w/v mouse brain homogenate in PBS pH 7.4
[5] = 50% w/v mouse liver homogenate in PBS pH 7.4

k ([2]; 50% w/v CD-1 mouse brain homogenate in PBS pH 7.4, 120 μL of 5 mM DMSO stock in 1080 μL, 100 rpm, 0-1440 min): 2.71 h⁻¹
t1/2 (h) [2, 4]: 0.25 h
t1/2 (min) [2, 4]: 15.32 min
k ([3]; 50% w/v CD-1 mouse liver homogenate in PBS pH 7.4, 120 μL of 5 mM DMSO stock in 1080 μL, 100 rpm, 0-1440 min): 0.51 h⁻¹
t1/2 (h) [3, 5]: 1.36 h
t1/2 (min) [3, 5]: 81.66 min
Compound: CCCCCCCCCCCCCC(=O)N[C@@H](CCC(N)=O)C(=O)N[C@@H](Cc1c[nH]cn1)C(=O)N[C@@H](CO)C(=O)N[C@@H](CCC(N)=O)C(=O)N[C@H](C(=O)N[C@H](C(=O)N[C@@H](CCCCN)C(=O)N[C@H](C(=O)O)C(C)C)[C@@H](C)O)[C@@H](C)CC [Mouse Myr-PTEN-PDZ] (HELM PEPTIDE1{[CCCCCCCCCCCCCC(=O)[*:2]].Q.H.S.Q.I.T.K.V}$$$$V2.0)
Recovery of cell metabolic activity after 24 h [1]: did not allow the cells to recover after 24 h

Source: paper PMC7473970, “Preformulation Studies of a Stable PTEN-PDZ Lipopeptide Able to Cross an In Vitro Blood-Brain-Barrier Model as a Potential Therapy for Alzheimer’s Disease” (Pharmaceutical Research, 2020)
